Patent US11925629B2, “Heterocyclic inhibitors of ERK1 and ERK2 and their use in the treatment of cancer” (Asana Biosciences, LLC, priority 2015, dated 2024)
Where two headings read alike, the source gives them in different places.

Experiments:
Assay type in all cases: cell-based, human
[1] = tested on: HT-29 (colorectal carcinoma, B-RafV600E) cells; test: Cell proliferation (Alamar Blue) assay, HT-29; details: Homo sapiens, HT-29, HT29 cells
Summary of the method: (§1)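 After overnight plating (16-24 h), cells were treated for 72 h with compound dilutions spanning roughly 0.0005 to 10 uM. Proliferation was measured by Alamar Blue fluorescence and IC50 values derived from variable-slope dose-response curves.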

[2] = tested on: HCT116 (colorectal carcinoma, K Ras G13D) cells; test: Cell proliferation (Alamar Blue) assay, HCT116
Summary of the method: as §1

[3] = tested on: phosphorylation of RSK1(S380) (the downstream target of ERK1/2); test: Phospho-RSK1(S380) ELISA assay in HT-29 cells; details: read-out: Mechanistic Cell Assay RSK1 Phos HT29 IC50
Procedure: Phospho-RSK1(S380) ELISA Assay
HT-29 cells (colorectal carcinoma, B-RafV600E); obtained from ATCC, USA) were seeded (60,000 cells/well) in a 96-well plate and incubated at 37° C./5% CO2 overnight and then treated with desired compound dilutions for 2 h. Medium was removed and cells were rinsed once with ice-cold 1×PBS, then 0.070 mL ice-cold 1× cell lysis buffer containing 1 mM PMSF was added to each well and the plate was incubated on a shaker for 2 h and 30 min at 4° C. The plate was then centrifuged for 20 min (×4000 rpm) at 4° C. and the supernatant was transferred to a new plate. Cell lysates were diluted with sample diluent at a ratio of 1:1. The ELISA was then carried out following the manufacturer's protocol (PathScan® phospho-RSK1(Ser380) Sandwich ELISA Kit, Cell Signaling Technologies). The plate was read at 450 nm within 30 min after adding STOP solution. The IC50 values were subsequently determined using a sigmoidal dose-response curve (variable slope) in GraphPad Prism® 5 software.

[4] = Homo sapiens, HCT-116, HCT116 cells
[5] = Homo sapiens, HT-29, HT29 cells, phospho-RSK1(S380)

IC50 [1] [nM] | IC50 [2, 4] [nM] | IC50 [3, 5] [nM] | IC50 ([2]; HCT116 cells) [nM] | IC50 ([3]; HT29 cells, phospho-RSK1(S380)) [nM] | IC50 ([3]; Homo sapiens, HT-29, HT29 cells) [nM] | SMILES
> 2500 | > 2500 | 250 to 500 | – | – | – | Cc1cnc(NC2CC2)nc1-n1ccc(C(=O)NC(CO)c2cccc(Cl)c2)c1 (stereo not shown) [Example 115, N-(1-(3-chloro-phenyl)-2-hydroxy-ethyl)-1-(2-(cyclopropyl-amino)-5-methyl-pyrimidin-4-yl)-1H-pyrrole-3-carboxamide]
> 2500 | > 2500 | > 2500 | – | – | – | Cc1cn(-c2ccnc(Nc3ccc(F)cc3)n2)cc1C(=O)NC(CO)c1cccc(Cl)c1 (stereo not shown) [Example 110, N-(1-(3-chloro-phenyl)-2-hydroxy-ethyl)-1-(2-((4-fluoro-phenyl)-amino)pyrimidin-4-yl)-4-methyl-1H-pyrrole-3-carboxamide]
500 to 2500 | – | 500 to 2500 | – | – | – | Cc1cnc(NC2CCOCC2)nc1-n1cnc(C(=O)NCc2cccc(Cl)n2)c1 [Example 307, N-((6-chloropyridin-2-yl)methyl)-1-(5-methyl-2-((tetrahydro-2H-pyran-4-yl)amino)pyrimidin-4-yl)-1H-imidazole-4-carboxamide]
> 2500 | > 2500 | 500 to 2500 | – | – | – | CC[C@H](CO)Nc1cc(-n2cnc(C(=O)NC(CO)c3cccc(Cl)c3)c2)c(Cl)cn1 (stereo partly drawn) [Example 168, 1-(5-chloro-2-(((R)-1-hydroxybutan-2-yl)amino)pyridin-4-yl)-N-(1-(3-chlorophenyl)-2-hydroxyethyl)-1H-imidazole-4-carboxamide]
– | – | – | 500 to 2500 | 500 to 2500 | – | Cc1cnc(NC2CCOCC2)nc1-n1cnc(C(=O)NCc2ccccc2CCO)c1 [Example 94, N-(2-(2-hydroxy-ethyl)benzyl)-1-(5-methyl-2-((tetrahydro-2H-pyran-4-yl)amino)pyrimidin-4-yl)-1H-imidazole-4-carboxamide]
– | 500 to 2500 | 250 to 500 | – | – | – | Cc1cnc(NC2CCOCC2)nc1-n1cnc(C(=O)N[C@]2(c3cccc(Cl)c3)C[C@@H](O)C2)c1 [Example 245, N-((1s,3s)-1-(3-chlorophenyl)-3-hydroxycyclobutyl)-1-(5-methyl-2-((tetrahydro-2H-4-yl)amino)pyrimidin-4-yl)-1H-imidazole-4-carboxamide]
– | ≤ 100 | ≤ 100 | – | – | – | Cc1cnc(Nc2ccc3c(c2)OCO3)nc1-n1cnc(C(=O)NC(CN)c2cc(F)cc(Cl)c2)c1 (stereo not shown) [Example 269, N-(2-amino-1-(3-chloro-5-fluorophenyl)ethyl)-1-(2-(benzo[d][1,3]dioxol-5-ylamino)-5-methylpyrimidin-4-yl)-1H-imidazole-4-carboxamide]
– | 100 to 250 | 250 to 500 | – | – | – | Cc1cnc(Nc2cccc(N3CCOCC3)c2)nc1-n1cnc(C(=O)N[C@H](CN)c2cccc(Cl)c2)c1 [Example 272, (S)-N-(2-amino-1-(3-chlorophenyl)ethyl)-1-(5-methyl-2-((3-morpholinophenyl)amino)pyrimidin-4-yl)-1H-imidazole-4-carboxamide]
– | 500 to 2500 | 250 to 500 | – | – | – | Cc1cnc(N[C@H]2CC[C@@H](O)CC2)nc1-n1cnc(C(=O)N[C@H](CO)c2cccc(Cl)c2)c1 [Example 242, N-((S)-1-(3-chlorophenyl)-2-hydroxyethyl)-1-(2-(((1r,4S)-4-hydroxycyclohexyl)amino)-5-methylpyrimidin-4-yl)-1H-imidazole-4-carboxamide]
– | > 2500 | 500 to 2500 | – | – | – | Cc1cnc(NC2CC(F)(F)C2)nc1-n1cnc(C(=O)N[C@@H](CN)c2cc(F)cc(Cl)c2)c1 [Example 289, (R)-N-(2-amino-1-(3-chloro-5-fluorophenyl)ethyl)-1-(2-((3,3-difluorocyclobutyl)amino)-5-methylpyrimidin-4-yl)-1H-imidazole-4-carboxamide]
– | > 2500 | 250 to 500 | – | – | – | Cc1cnc(NC2CCOCC2)nc1-n1cnc(C(=O)NC(CO)c2ccc(Cl)s2)c1 (stereo not shown) [Example 257, N-(1-(5-chlorothiophen-2-yl)-2-hydroxyethyl)-1-(5-methyl-2-((tetrahydro-2H-pyran-4-yl)amino)pyrimidin-4-yl)-1H-imidazole-4-carboxamide]
– | > 2500 | 500 to 2500 | – | – | – | Cc1cnc(Nc2ccc(Oc3ccccc3)cc2)nc1-n1cnc(C(=O)N[C@H](CO)c2cccc(Cl)c2)c1 (stereo in doubt) [Example 250, N-(1-(3-chlorophenyl)-2-hydroxyethyl)-1-(5-methyl-2-((4-phenoxyphenyl)amino)pyrimidin-4-yl)-1H-imidazole-4-carboxamide]
– | > 2500 | 500 to 2500 | – | – | – | Cc1ccc(C(CO)NC(=O)c2cn(-c3nc(NC4CCOCC4)ncc3C)cn2)s1 (stereo not shown) [Example 261, N-(2-hydroxy-1-(5-methylthiophen-2-yl)ethyl)-1-(5-methyl-2-((tetrahydro-2H-pyran-4-yl)amino)pyrimidin-4-yl)-1H-imidazole-4-carboxamide]
– | > 2500 | > 2500 | – | – | – | Cc1cnc(NC2CCS(=O)(=O)C2)nc1-n1cnc(C(=O)N[C@H](CO)c2cccc(Cl)c2)c1 (stereo partly drawn) [Example 246, N-((S)-1-(3-chlorophenyl)-2-hydroxyethyl)-1-(2-((1,1-dioxidotetrahydrothiophen-3-yl)amino)-5-methylpyrimidin-4-yl)-1H-imidazole-4-carboxamide]
– | 500 to 2500 | 500 to 2500 | – | – | – | Cc1cnc(Nc2ccc(F)cc2)nc1-n1cnc(C(=O)N[C@@H](CN)c2cccc(Cl)c2)c1 [Example 249, (R)-N-(2-amino-1-(3-chlorophenyl)ethyl)-1-(2-((4-fluorophenyl)amino)-5-methylpyrimidin-4-yl)-1H-imidazole-4-carboxamide]
– | > 2500 | > 2500 | – | – | – | Cc1cnc(NC(CO)CO)nc1-n1cnc(C(=O)N[C@H](CO)c2cccc(Cl)c2)c1 [Example 260, (S)-N-(1-(3-chlorophenyl)-2-hydroxyethyl)-1-(2-((1,3-dihydroxypropan-2-yl)amino)-5-methylpyrimidin-4-yl)-1H-imidazole-4-carboxamide]
– | 250 to 500 | 100 to 250 | – | – | – | Cc1cnc(NC2CCC(F)(F)CC2)nc1-n1cnc(C(=O)N[C@H](CO)c2cccc(Cl)c2)c1 [Example 240, (S)-N-(1-(3-chlorophenyl)-2-hydroxyethyl)-1-(2-((4,4-difluorocyclohexyl)amino)-5-methylpyrimidin-4-yl)-1H-imidazole-4-carboxamide]
– | > 2500 | – | – | – | 500 to 2500 | Cc1cnc(N[C@H]2CCOC2)nc1-n1cnc(C(=O)NCc2cccc(C(F)(F)F)c2)c1 [Example 311, (S)-1-(5-methyl-2-((tetrahydrofuran-3-yl)amino)pyrimidin-4-yl)-N-(3-(trifluoromethyl)benzyl)-1H-imidazole-4-carboxamide]
– | > 2500 | 250 to 500 | – | – | – | Cc1cnc(Nc2ccc(F)cc2Cl)nc1-n1cnc(C(=O)N[C@H](CO)c2cccc(Cl)c2)c1 [Example 241, (S)-1-(2-((2-chloro-4-fluorophenyl)amino)-5-methylpyrimidin-4-yl)-N-(1-(3-chlorophenyl)-2-hydroxyethyl)-1H-imidazole-4-carboxamide]
– | 500 to 2500 | 250 to 500 | – | – | – | Cc1cccc(C(CO)NC(=O)c2cn(-c3nc(NC4CCOCC4)ncc3C)cn2)c1 (stereo not shown) [Example 238, N-(2-hydroxy-1-(m-tolyl)ethyl)-1-(5-methyl-2-((tetrahydro-2H-pyran-4-yl)amino)pyrimidin-4-yl)-1H-imidazole-4-carboxamide]
